Measured values taken from patent US10377757B2, “Crystal form of JAK inhibitor and preparation method thereof” (CRYSTAL PHARMATECH CO., LTD, priority 2015, dated 2019).
“Also recorded” adds a separate entry of the source.

Legend:
[1] = Stability assessment: storage under stress conditions, XRPD after storage; format: physicochemical; conditions: for stability (overall conclusion in words): solid form stability on storage; for Form Change: XRPD
Method: The crystalline Form I of the present disclosure was stored under 5° C., 25° C./60% RH and 40° C./75% relative humidity for 90 days. XRPD patterns were collected after storage.
The crystalline Form II of the present disclosure was stored under 5° C. and 25° C./60% RH. XRPD patterns were collected after storage.
Phosphate Form A of the present disclosure was stored under 5° C., 25° C./60% RH and 40° C./75% RH for 90 days. XRPD patterns were collected after storage.
Two of 10 mg of phosphate Form C were respectively opened stored at 25° C./60% RH and 40° C./75% RH for 30 days. XRPD and purity of the sample were collected after storage.

[2] = Hygroscopicity assessment by dynamic vapor sorption (DVS); format: physicochemical; conditions: for weight gain under 80% Relative Humidity: DVS, 10 mg sample, 80% RH
Method: Hygroscopicity of 10 mg Form I of the present disclosure was tested using dynamic vapor sorption (DVS). 5.
(§1) About hygroscopicity characterization description and definition of hygroscopicity (Chinese Pharmacopoeia 2010 edition appendix XIXJ Drug hygroscopic test guidelines, test at 25° C.+/−1° C., 80% Relative Humidity) • deliquescent: sufficient water is absorbed to form a liquid; • very hygroscopic: increase in mass is equal to or greater than 15 percent; • hygroscopic: increase in mass is less than 15 percent and equal to or greater than 2 percent; • slightly hygroscopic: increase in mass is less than 2 percent and equal to or greater than 0.2 percent. • no or almost no hygroscopic: increase in mass is less than 0.2%.
Hygroscopicity of 10 mg of phosphate crystalline Form A and phosphate crystalline Form C of the present disclosure were tested using dynamic vapor sorption (DVS). The DVS plot of phosphate crystalline Form A is shown in FIG. 23, The DVS plot of phosphate crystalline Form C is shown in FIG. 24.
as §1, with “Pharmacopoeia” for “About hygroscopicity characterization description and definition of hygroscopicity (Chinese Pharmacopoeia”

[3] = biological target: JAK2 (Homo sapiens, UniProt O60674); conditions: kinase detection, selectivity over JAK3; cited from earlier work
JAK2, sequence (O60674 whole entry): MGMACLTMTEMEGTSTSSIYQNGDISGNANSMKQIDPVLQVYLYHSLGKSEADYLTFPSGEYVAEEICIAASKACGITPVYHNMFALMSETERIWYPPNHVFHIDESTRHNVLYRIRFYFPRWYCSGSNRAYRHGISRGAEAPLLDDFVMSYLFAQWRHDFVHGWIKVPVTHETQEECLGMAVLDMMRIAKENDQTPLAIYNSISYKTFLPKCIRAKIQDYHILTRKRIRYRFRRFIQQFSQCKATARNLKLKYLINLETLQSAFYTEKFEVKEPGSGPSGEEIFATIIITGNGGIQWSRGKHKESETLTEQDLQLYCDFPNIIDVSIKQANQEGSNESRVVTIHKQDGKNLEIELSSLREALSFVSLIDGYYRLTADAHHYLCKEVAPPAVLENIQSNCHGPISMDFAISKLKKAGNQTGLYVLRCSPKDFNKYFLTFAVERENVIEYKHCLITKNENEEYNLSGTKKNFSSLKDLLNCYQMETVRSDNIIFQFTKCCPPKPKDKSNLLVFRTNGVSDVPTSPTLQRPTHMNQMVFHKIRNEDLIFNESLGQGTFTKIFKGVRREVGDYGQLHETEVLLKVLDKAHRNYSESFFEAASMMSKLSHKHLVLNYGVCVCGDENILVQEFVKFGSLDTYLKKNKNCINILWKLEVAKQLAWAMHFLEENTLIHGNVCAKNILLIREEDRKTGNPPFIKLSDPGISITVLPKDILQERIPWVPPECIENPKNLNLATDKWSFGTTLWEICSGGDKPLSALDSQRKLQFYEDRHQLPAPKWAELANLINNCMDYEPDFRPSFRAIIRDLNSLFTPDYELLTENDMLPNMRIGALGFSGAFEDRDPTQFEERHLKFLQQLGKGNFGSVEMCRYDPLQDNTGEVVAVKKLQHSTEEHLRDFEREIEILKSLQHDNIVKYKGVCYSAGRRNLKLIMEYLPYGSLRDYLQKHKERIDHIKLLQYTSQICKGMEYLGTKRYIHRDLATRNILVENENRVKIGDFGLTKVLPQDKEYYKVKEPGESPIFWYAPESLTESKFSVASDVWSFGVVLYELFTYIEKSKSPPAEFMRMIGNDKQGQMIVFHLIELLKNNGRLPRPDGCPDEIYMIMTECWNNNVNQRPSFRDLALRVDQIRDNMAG

[4] = stored at 25° C./60% RH for 90 days
[5] = stored at 40° C./75% RH for 90 days
[6] = stored at 25° C./60% RH for 30 days

| stability (overall conclusion in words) [1] | weight gain under 80% Relative Humidity [2] [%] | SMILES | Form Change ([1]; stored at 5° C. for 90 days) | Form Change [1, 4] | Form Change [1, 5] | Form Change [1, 6] | other results |
| --- | --- | --- | --- | --- | --- | --- | --- |
| good stability |  | CCS(=O)(=O)N1CC(CC#N)(n2cc(-c3ncnc4[nH]ccc34)cn2)C1 [Form I] | remains unchanged; also recorded: Form I remain unchanged | remains unchanged; also recorded: Form I remain unchanged | remains unchanged; also recorded: Form I remain unchanged |  | hygroscopicity class ([2]; Chinese Pharmacopoeia 2010 definition, 25° C.+/-1° C., 80% Relative Humidity): slightly hygroscopic (slightly hygroscopic: increase in mass is less than 2 percent and equal to or greater than 0.2 percent); weight gain under 80% Relative Humidity ([2]; listed as Form I of the compound Formula (I)): 0.44% |
|  |  | CCS(=O)(=O)N1CC(CC#N)(n2cc(-c3ncnc4[nH]ccc34)cn2)C1 [Baricitinib] |  |  |  |  | inhibition strength for JAK2 relative to JAK3 [3]: 100 times |
| good stability | 0.99 | CCS(=O)(=O)N1CC(CC#N)(n2cc(-c3ncnc4[nH]ccc34)cn2)C1 [phosphate Form A] | remains unchanged | remains unchanged | remains unchanged |  | Form Change ([1]; stored at 5° C. for 90 days, listed as Phosphate Crystalline Form A): Form A remain unchanged; Form Change ([1]; stored at 25° C./60% RH for 90 days, listed as Phosphate Crystalline Form A): Form A remain unchanged; Form Change ([1]; stored at 40° C./75% RH for 90 days, listed as Phosphate Crystalline Form A): Form A remain unchanged; weight gain under 80% Relative Humidity ([2]; listed as phosphate Form A of the compound Formula (I)): 0.99% |
|  | 2.85 | CCS(=O)(=O)N1CC(CC#N)(n2cc(-c3ncnc4[nH]ccc34)cn2)C1 [phosphate Form C] |  |  |  | Form C remain | Form Change ([1]; stored at 40° C./75% RH for 30 days): Form C remain; weight gain under 80% Relative Humidity ([2]; listed as phosphate Form C of the compound Formula (I)): 2.85% |
| good stability |  | CCS(=O)(=O)N1CC(CC#N)(n2cc(-c3ncnc4[nH]ccc34)cn2)C1 [Form II] | remains unchanged; also recorded: Form II remain unchanged |  |  | remains unchanged; also recorded: Form II remain unchanged |  |
